Test systems include 786-0; COLO 205; HCC 2998; HCT-116; IGROV-1; K562; KM12; MDA-N; MOLT-4; NCI-H460; OVCAR-4; OVCAR-5; OVCAR-8; RPMI-8226; SF-268; SN12C; T47D; UACC-257; UACC-62; Hs-578T.
What all share (experiment): NCI-60 cell line screen, 48 h

Each structure is given as a SMILES string.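 Grown in 96-well plates, cells were treated for 48 hours with each compound at five concentrations. Insufficient inhibition: endpoint recorded as highest concentration tested. At the GI50, growth is halved.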 Calls of active or inactive are those of the source. No stated cut-off is given here; in the data, active = GI50 up to about 1.1 µM and inactive = higher.

For the molecule `CC1=NN(C(=O)c2ccccc2O)C(=O)/C1=C/c1ccccc1O`, the GI50 is 0.521 µM (active) with 786-0; 20.7 µM (inactive) in the test on COLO 205; 3.21 µM (inactive) in the test on HCC 2998; 0.107 µM (active) in the test on HCT-116; 0.0577 µM (active) in the test with IGROV-1; 0.0914 µM (active) in the test on K562. The GI50 is 2.76 µM (inactive) in the test on KM12; 0.114 µM (active) in the test on MDA-N; 0.295 µM (active) in the test with MOLT-4; 0.209 µM (active) in the test with NCI-H460; 1.08 µM (active) with OVCAR-4; 3.74 µM (inactive) in the test with OVCAR-5. In addition, the GI50 with OVCAR-8 was 0.557 µM (active); in the test on RPMI-8226 it was 0.931 µM (active); in the test with SF-268, 0.445 µM (active); in the test on SN12C, 0.579 µM (active); with T47D it was 0.225 µM (active); in the test with UACC-257 it was 2.31 µM (inactive). In the test with UACC-62, the GI50 was 0.057 µM (active).

In the case of `COc1cc(C2C3=C(COC3=O)OC(C)(C)Oc3cc4c(cc32)OCO4)cc(OC)c1OC` (stereo unspecified), the GI50 was 0.293 µM (active) with 786-0; 0.236 µM (active) with COLO 205; 0.535 µM (active) with HCC 2998; 0.318 µM (active) in the test on HCT-116; 0.301 µM (active) in the test on Hs-578T; 0.521 µM (active) with IGROV-1. Further, the GI50 is 0.353 µM (active) in the test on K562; 0.212 µM (active) in the test with KM12; 0.212 µM (active) in the test on MDA-N; 0.453 µM (active) in the test on MOLT-4; 0.365 µM (active) in the test on NCI-H460; 3.3 µM (inactive) in the test with OVCAR-4. The GI50 is 3.72 µM (inactive) in the test with OVCAR-5; 0.342 µM (active) in the test with OVCAR-8; 0.444 µM (active) in the test with RPMI-8226; 0.405 µM (active) in the test with SF-268; 0.466 µM (active) with SN12C; 1.17 µM (inactive) with UACC-257. In addition, the GI50 in the test with UACC-62 is 0.35 µM (active).

`O=C1CC(C(=O)N2CCCCC2)n2c(=O)n(-c3ccccc3)c(=O)n2C1` (stereo unspecified): the GI50 in the test on 786-0, in the test with COLO 205, in the test on HCC 2998, in the test with HCT-116, in the test with Hs-578T and in the test on IGROV-1 was > 100 µM (inactive) throughout. Also, the GI50 with KM12, in the test with MDA-N, in the test with NCI-H460, in the test on OVCAR-5, in the test on OVCAR-8 and in the test on SF-268 was > 100 µM (inactive) each time. The GI50 in the test with UACC-257 and in the test on UACC-62 was > 100 µM (inactive) in each case.

As for `NC(=S)N/N=C1\NC(=O)/C(=C/c2ccc3c(c2)OCO3)S1`, the GI50 in the test on 786-0 is 33.9 µM (inactive); with COLO 205, 26.3 µM (inactive); in the test on HCC 2998, 33.7 µM (inactive); in the test with HCT-116 it was 29.1 µM (inactive); in the test on IGROV-1, 17.1 µM (inactive); in the test with KM12, 20.9 µM (inactive). Besides, the GI50 is 27.5 µM (inactive) in the test with MDA-N; 21.4 µM (inactive) in the test with MOLT-4; 30.8 µM (inactive) with NCI-H460; 24.3 µM (inactive) with OVCAR-4; 24.2 µM (inactive) in the test with OVCAR-5; 24.8 µM (inactive) in the test with OVCAR-8. The GI50 in the test with SF-268 is 31.7 µM (inactive); in the test on SN12C, 36.7 µM (inactive); in the test with T47D, 19.3 µM (inactive); with UACC-257, 31.6 µM (inactive).

In the case of `CC(=O)CC1(CBr)Nc2ccc([N+](=O)[O-])cc2NC1=O` (stereo unspecified), the GI50 in the test on 786-0 is 31.2 µM (inactive); with COLO 205 it was > 100 µM (inactive); in the test on HCC 2998 it was > 100 µM (inactive); in the test on HCT-116 it was 31.8 µM (inactive); in the test with IGROV-1 it was > 100 µM (inactive); with K562 it was 83.8 µM (inactive). Moreover, the GI50 in the test with KM12 was 56.2 µM (inactive); in the test with MDA-N, > 100 µM (inactive); in the test with MOLT-4 it was 42.9 µM (inactive); in the test with NCI-H460, > 100 µM (inactive); in the test on OVCAR-4, 81.8 µM (inactive); with OVCAR-5, > 100 µM (inactive). The GI50 was > 100 µM (inactive) in the test on OVCAR-8; 44.3 µM (inactive) in the test on RPMI-8226; > 100 µM (inactive) in the test on SF-268; 93.1 µM (inactive) with SN12C; 42.9 µM (inactive) in the test on T47D; > 100 µM (inactive) in the test on UACC-257. Further, the GI50 with UACC-62 is > 100 µM (inactive).

For the molecule `COc1cc(/C=N\O)nc(-c2ccccn2)c1`, the GI50 with 786-0 was 0.179 µM (active); in the test with COLO 205, 0.188 µM (active); in the test on HCC 2998 it was 46.8 µM (inactive); in the test on HCT-116, 0.301 µM (active); in the test on Hs-578T, 47.2 µM (inactive); in the test on IGROV-1, 0.202 µM (active). The GI50 is 0.399 µM (active) with K562; 0.55 µM (active) in the test on KM12; 0.173 µM (active) in the test on MOLT-4; 0.227 µM (active) in the test on NCI-H460; 0.504 µM (active) in the test on OVCAR-4; 3.08 µM (inactive) in the test with OVCAR-5. For the same molecule, the GI50 was 0.2 µM (active) in the test with OVCAR-8; 0.337 µM (active) with RPMI-8226; 0.452 µM (active) in the test on SF-268; 0.264 µM (active) in the test on SN12C; 1.18 µM (inactive) in the test with T47D; 2.4 µM (inactive) in the test on UACC-257. In addition, the GI50 in the test with UACC-62 was 0.448 µM (active).

Regarding `CN1CCc2c(sc3nc(Nc4ccccc4)n(N)c(=O)c23)C1`, the GI50 with 786-0 is > 100 µM (inactive); with COLO 205 it was 42.8 µM (inactive); in the test on HCT-116, 72.3 µM (inactive); in the test on Hs-578T it was > 100 µM (inactive); in the test with IGROV-1 it was > 100 µM (inactive); in the test on K562, 37.1 µM (inactive). In addition, the GI50 with KM12 is > 100 µM (inactive); in the test with MDA-N, > 100 µM (inactive); with MOLT-4 it was 65 µM (inactive); in the test with NCI-H460 it was > 100 µM (inactive); in the test with OVCAR-5 it was > 100 µM (inactive); in the test with OVCAR-8, > 100 µM (inactive). Moreover, the GI50 with RPMI-8226 was 83 µM (inactive); in the test on SF-268 it was > 100 µM (inactive); with SN12C, > 100 µM (inactive); in the test with T47D, > 100 µM (inactive); with UACC-257, 60.4 µM (inactive); in the test with UACC-62 it was 38.4 µM (inactive).

`COc1ccc(/C=N/Nc2nc3ccccc3c(=O)n2-c2ccccc2)cc1`: the GI50 with 786-0, in the test with COLO 205, with HCC 2998, in the test with HCT-116, with IGROV-1 and in the test with K562 was > 100 µM (inactive) each time. Moreover, the GI50 in the test with KM12 was > 100 µM (inactive); with MDA-N, > 100 µM (inactive); in the test on MOLT-4, > 100 µM (inactive); in the test on NCI-H460, 28.2 µM (inactive); in the test with OVCAR-4 it was > 100 µM (inactive); in the test on OVCAR-5 it was > 100 µM (inactive). For the same molecule, the GI50 in the test on OVCAR-8 was > 100 µM (inactive); in the test on SF-268 it was > 100 µM (inactive); in the test on SN12C it was > 100 µM (inactive); with T47D, > 100 µM (inactive); in the test on UACC-257, > 100 µM (inactive); with UACC-62, 24.4 µM (inactive).

Regarding `O=C1CSC(c2c[nH]c3ccccc23)N1c1ccccc1[N+](=O)[O-]` (stereo unspecified), the GI50 in the test on 786-0, in the test with COLO 205, in the test with HCC 2998, in the test on HCT-116, with IGROV-1 and in the test on K562 was > 100 µM (inactive) each time. Further, the GI50 in the test on KM12, in the test with MDA-N, in the test on MOLT-4, in the test with NCI-H460, with OVCAR-4 and with OVCAR-5 was > 100 µM (inactive) in each case. The GI50 with OVCAR-8, with RPMI-8226, in the test on SF-268, in the test with SN12C, in the test with T47D and in the test with UACC-257 was > 100 µM (inactive) each time. Also, the GI50 with UACC-62 was > 100 µM (inactive).

For `O=C1/C(=C/c2ccc([N+](=O)[O-])cc2)CCCc2ccccc21`, the GI50 in the test on 786-0 was > 100 µM (inactive); in the test on COLO 205 it was > 100 µM (inactive); in the test with HCC 2998 it was > 100 µM (inactive); in the test on HCT-116 it was > 100 µM (inactive); in the test with Hs-578T it was 25.8 µM (inactive); in the test on IGROV-1, > 100 µM (inactive). Further, the GI50 in the test on K562, with KM12, in the test with MDA-N, in the test with MOLT-4, in the test with NCI-H460 and in the test with OVCAR-4 was > 100 µM (inactive) each time. The GI50 in the test with OVCAR-5 is > 100 µM (inactive); with OVCAR-8 it was > 100 µM (inactive); with RPMI-8226, > 100 µM (inactive); in the test with SF-268, 30.4 µM (inactive); with SN12C, > 100 µM (inactive); with UACC-257 it was > 100 µM (inactive). In the test with UACC-62, the GI50 was 91 µM (inactive).

With `O=C1CC(c2ccccc2Cl)Oc2ccccc21` (stereo unspecified), the GI50 with 786-0 is 29 µM (inactive); with COLO 205, 25.4 µM (inactive); in the test with HCC 2998 it was 71.1 µM (inactive); in the test on HCT-116 it was 45 µM (inactive); in the test on Hs-578T, 26.3 µM (inactive); with IGROV-1 it was 21.4 µM (inactive). Further, the GI50 with K562 was 17.3 µM (inactive); in the test with KM12, 27 µM (inactive); in the test with NCI-H460 it was 28.8 µM (inactive); in the test on OVCAR-4, 51.9 µM (inactive); in the test on OVCAR-8, 26.4 µM (inactive); with RPMI-8226, 17.5 µM (inactive). The GI50 in the test with SF-268 is 37.2 µM (inactive); with T47D, 43 µM (inactive); in the test with UACC-257, > 100 µM (inactive); with UACC-62, 45.3 µM (inactive).

The values are drawn from ChEMBL document CHEMBL1201862, “PubChem BioAssay data set” (2004).
